Reference: patent publication US8597686B2, “Porous cellulose aggregate and formed product composition comprising the same” (Asahi Kasei Chemicals Corporation, priority 2004, dated 2013)

How the values were obtained:
[1] = Elution test of ethenzamide; assay type: physicochemical; settings: molded product at 50 MPa or pulverized bulk drug
Method: 0.2 g of the obtained mixed powder was weighed and put in a mortar (manufactured by Kikusui Seisakusho, Ltd. using materials SUS2, 3) and compressed with a round plane mallet (manufactured by Kikusui Seisakusho, Ltd. using materials SUS2, […], trade name, PCM-1A, compression rate 1 cm/min) and after held at the aimed pressure for 10 seconds, a columnar molded product was taken out. […]
1 g of Cellulose Aggregate G was added to 10 mL of a solution in which ethenzamide (manufactured by API Co., Ltd., a powder grade was pulverized with a small size pulverizer) was dissolved in ethanol (manufactured by Wako Pure Chemical Industries, Ltd., special grade chemical) in a ratio of 5:95 and stirred by a magnetic stirrer for three minutes. The obtained dispersion was introduced into an evaporator and completely deprived of solvent to obtain a powder sample.
Similarly operating as in Example 14 except that the pressure at the time of preparing a columnar molded product from this powder was changed to 50 MPa and elution test was performed.
Only the ethenzamide pulverized by the method of Example 15 was subjected to elution test.

[2] = Reactivity with pharmacological agent (aspirin decomposition ratio on storage); assay type: physicochemical; settings: 60° C., airtight, two weeks
Method: Aspirin (official crystal aspirin one pass treated with a small pulverizer φ 0.5 mm) and each cellulose sample were blended by powder-powder in 5/5 (total amount: 0.5 g) in dry process and mixed in glass sample bottle and stored with airtight stopper (60° C.) in an oven (manufactured by Tabai Espec, trade name, perfect oven) for two weeks and decomposition ratio was measured. […] 0.25 g of aspirin after stored (0.5 g for powder blend product) was introduced into a 50 mL measuring flask and added with ethanol to total 50 mL and shaken for five minutes. The resulted ethanol solution was filtered and the filtrate was transferred to a 100 mL measuring flask and added with ethanol to total 100 mL. 1 mL of this ethanol solution and 1 mL of the above color identification test liquid were introduced into a 50 mL measuring flask and added with pure water to total 50 mL and absorbance at wavelength 532 nm was measured with an ultraviolet absorbance measuring instrument (manufactured by JASCO Corp.). The decomposition ratio was calculated as follows: Decomposition ratio=(1−(absorbance after stored/absorbance before stored))×100(%).

In the case of `CCOc1ccccc1C(N)=O` [Bulk Ethenzamide, ethenzamide], the “Dissolution Rate after 1 hour” value [1] is reported as 9%.

In the case of `CC(=O)Oc1ccccc1C(=O)O` [aspirin, Aspirin], the aspirin decomposition ratio [2] is reported as 15%.
